The results in this text go back to patent US11505553B2, “2-(Het)aryl-substituted fused heterocycle derivatives as pesticides” (Bayer Aktiengesellschaft, priority 2017, dated 2022).

What all share (format): in vivo
Experiment [1] relates to Myzus persicae. In words: Myzus persicae spray test (MYZUPE), contrastive examples. The settings on record: 120 h, 5 dat, read-out: % efficacy. How it is done:
(§1) Solvent: 78.0 parts by weight of acetone • • 1.5 parts by weight of dimethylformamide Emulsifier: alkylaryl polyglycol ether To produce a suitable active ingredient formulation, 1 part by weight of active ingredient is dissolved with the specified parts by weight of solvent and made up to the desired concentration with water containing an emulsifier concentration of 1000 ppm. To produce further test concentrations, the formulation is diluted with emulsifier-containing water. Discs of chinese cabbage leaves (Brassica pekinensis) infested by all stages of the green peach aphid (Myzus persicae) are sprayed with an active ingredient formulation of the desired concentration. After the desired time, the efficacy in % is determined. 100% means that all aphids have been killed; 0% means that no aphids have been killed.

Experiment [2] has as its system Myzus persicae. Description: Myzus persicae oral test. The conditions noted are these: 120 h, after 5 days, read-out: efficacy; for pest or weed control at 0.8 ppm: application rate 0.8 ppm; for pest or weed control at 4 ppm: application rate 4 ppm. On the procedure:
Solvent: 100 parts by weight of acetone To produce a suitable active ingredient formulation, 1 part by weight of active ingredient is dissolved with the stated parts by weight of solvent and made up to the desired concentration with water. 50 μl of the active ingredient preparation are transferred into microtitre plates and made up to a final volume of 200 μl with 150 μl of IPL41 insect medium (33%+15% sugar). Subsequently, the plates are sealed with parafilm, which a mixed population of green peach aphids (Myzus persicae) within a second microtitre plate is able to puncture and imbibe the solution. After 5 days, the efficacy in % is determined. 100% means that all the aphids have been killed; 0% means that no aphids have been killed.

Experiment [3] deals with Myzus persicae. In words: Myzus persicae spray test. The conditions noted are these: foliar, 120 h, Chinese cabbage leaf discs, after 5 days, read-out: efficacy; for pest or weed control at 100 g/ha: application rate 100 g/ha. On the procedure:
as §1, with “Solvent: 78 parts by” for “Solvent: 78.0 parts by”, “Discs of Chinese cabbage leaves” for “Discs of chinese cabbage leaves”, “concentration. After 5 days, the efficacy” for “concentration. After the desired time, the efficacy”, “that all the aphids have” for “that all aphids have”

Experiment [4] deals with Myzus persicae. Description: Myzus persicae spray test (MYZUPE S), bell pepper plants. The settings on record: 144 h, 6 dat, read-out: % efficacy. How it is done:
Solvent: 14 parts by weight of dimethylformamide Emulsifier: alkylaryl polyglycol ether To produce an appropriate active ingredient formulation, 1 part by weight of active ingredient is dissolved with the stated parts by weight of solvent and made up with water containing an emulsifier concentration of 1000 ppm until the desired concentration is attained. For production of further test concentrations, the mixture is diluted with emulsifier-containing water. If addition of ammonium salts or/and penetrants is required, these are each added to the preparation solution in a concentration of 1000 ppm. Bell pepper plants (Capsicum annuum) severely infested by the green peach aphid (Myzus persicae) are treated by spraying with the active ingredient formulation in the desired concentration. After the desired time, the kill in % is determined. 100% means that all animals have been killed; 0% means that no animals have been killed.

For experiment [5], the system named is Ctenocephalides felis. Description: Ctenocephalides felis oral test. The conditions noted are these: 48 h, application rate 100 ppm in citrated cattle blood, after 2 days, read-out: efficacy (kill). On the procedure:
Solvent: dimethyl sulfoxide To produce a suitable active ingredient formulation, 10 mg of active ingredient are mixed with 0.5 ml of dimethyl sulfoxide. Dilution with citrated cattle blood gives the desired concentration. About 20 unfed adult cat fleas (Ctenocephalides felis) are placed into a chamber which is closed at the top and bottom with gauze. A metal cylinder whose bottom end is closed with parafilm is placed onto the chamber. The cylinder contains the blood/active ingredient formulation, which can be imbibed by the fleas through the parafilm membrane. After 2 days, the kill in % is determined. 100% means that all of the fleas have been killed; 0% means that none of the fleas have been killed.

In experiment [6] the test system is Myzus persicae. In words: Myzus persicae drench test (MYZUPE D). The settings on record: soil, 240 h, 10 dat, read-out: % efficacy. On the procedure:
Solvent: 7 parts by weight of dimethylformamide Emulsifier: 2 parts by weight of alkylaryl polyglycol ether To produce an appropriate active ingredient formulation, 1 part by weight of active ingredient is mixed with the stated amounts of solvent and emulsifier, and the concentrate is diluted with water to the desired concentration, it being necessary to take into account soil volume into which drenching is effected. It should be ensured that a concentration of 40 ppm of emulsifier in the soil is not exceeded. For production of further test concentrations, the mixture is diluted with water. Savoy cabbage plants (Brassica oleracea) in earth pots, infested by all stages of the green peach aphid (Myzus persicae), are drenched with an active ingredient formulation of the desired concentration. After the desired time, the efficacy in % is determined. 100% means that all aphids have been killed; 0% means that no aphids have been killed.

The test system of experiment [7] is Nilaparvata lugens. Description: Nilaparvata lugens test (NILALU S). The settings on record: read-out: % efficacy. How it is done:
Solvent: 14 parts by weight of dimethylformamide Emulsifier: 2 parts by weight of alkylaryl polyglycol ether To produce an appropriate active ingredient formulation, 1 part by weight of active ingredient is dissolved with the stated parts by weight of solvent and emulsifier and made up with water until the desired concentration is attained. For production of further test concentrations, the mixture is diluted with water. If addition of ammonium salts or/and penetrants (rapeseed oil methyl ester) is required, these are each pipetted into the finished preparation solution in a concentration of 1000 ppm after the dilution. Rice plants (Oryza sativa, var. Balilla) are treated by spraying with the active ingredient formulation in the desired concentration and then populated with L3 larvae of the brown planthopper (Nilaparvata lugens). After the desired time, the kill in % is determined. 100% means that all planthoppers have been killed and 0%, means that no planthoppers have been killed.

The subject of experiment [8] is Nilaparvata lugens. Description: Nilaparvata lugens spray test (NILALU). The settings on record: 96 h, 4 dat, read-out: % efficacy. On the procedure:
Solvent: 52.5 parts by weight of acetone • 7 parts by weight of dimethylformamide
Emulsifier: alkylaryl polyglycol ether
To produce an appropriate active ingredient formulation, 1 part by weight of active ingredient is dissolved with the stated parts by weight of solvent and made up with water containing an emulsifier concentration of 1000 ppm until the desired concentration is attained. For production of further test concentrations, the mixture is diluted with emulsifier-containing water. If addition of ammonium salts or/and penetrants is required, these are each added to the preparation solution in a concentration of 1000 ppm.
Rice plants (Oryza sativa) are sprayed with an active ingredient formulation of the desired concentration and then populated with larvae of the rice cicada (Nilaparvata lugens).
After the desired time, the efficacy in % is determined. 100% means that all rice cicadas have been killed; 0% means that no rice cicadas have been killed.

Experiment [9] deals with Ctenocephalides felis. In words: Ctenocephalides felis in vitro contact test with adult cat fleas. The conditions noted are these: application rate 5 μg/cm^2 (=500 g/ha), after 48 h, adult cat fleas dead or moribund, read-out: efficacy. On the procedure: For the coating of the test tubes, 9 mg of active ingredient are first dissolved in 1 ml of acetone p.a. and then diluted to the desired concentration with acetone p.a. 250 μl of the solution are distributed homogeneously on the inner walls and the base of a 25 ml glass tube by turning and rocking on an orbital shaker (rocking rotation at 30 rpm for 2 h). With 900 ppm of active ingredient solution and internal surface area 44.7 cm^2, given homogeneous distribution, an area-based dose of 5 μg/cm^2 is achieved. After the solvent has evaporated off, the tubes are populated with 5-10 adult cat fleas (Ctenocephalides felis), sealed with a perforated plastic lid and incubated in a horizontal position at room temperature and ambient humidity. After 48 h, efficacy is determined. To this end, the tubes are stood upright and the fleas are knocked to the base of the tube. Fleas which remain motionless at the base or move in an uncoordinated manner are considered to be dead or moribund. […] 100% efficacy means that all the fleas were dead or moribund. 0% efficacy means that no fleas were harmed.

In the next experiment the test system is Phaedon cochleariae. Description: Phaedon cochleariae spray test (PHAECO), contrastive examples. The conditions noted are these: 168 h, 100 g/ha, 7 dat, read-out: % efficacy. How it is done: Solvent: 78.0 parts by weight of acetone • • 1.5 parts by weight of dimethylformamide Emulsifier: alkylaryl polyglycol ether To produce an appropriate active ingredient formulation, 1 part by weight of active ingredient is dissolved with the stated parts by weight of solvent and made up with water containing an emulsifier concentration of 1000 ppm until the desired concentration is attained. For production of further test concentrations, the mixture is diluted with emulsifier-containing water. Discs of chinese cabbage leaves (Brassica pekinensis) are sprayed with an active ingredient formulation of the desired concentration and, after drying, populated with larvae of the mustard beetle (Phaedon cochleariae). After the desired time, the efficacy in % is determined. 100% means that all beetle larvae have been killed; 0% means that no beetle larvae have been killed.

Read-outs that look alike come from different tables or passages of the source.

Consider `CCS(=O)(=O)c1ccc(NC(=O)NC)nc1-c1nc2cc(C(F)(F)C(F)(F)F)nnc2n1C` [Example I-7], for which the Emax at 4 g/ha with Myzus persicae [1] worked out at 100%.

For the compound `CCS(=O)(=O)c1ccc(N(C)C(=O)N(C)C)nc1-c1nc2cc(C(F)(F)F)nnc2n1C` [Example I-12], in the experiment with Myzus persicae [2], the pest or weed control at 0.8 ppm turned out to be 100% and the pest or weed control at 4 ppm is 100%. Also, in the experiment on Myzus persicae [3] (application rate 20 g/ha), the pest or weed control at 20 g/ha worked out at 90%. For the same compound, in the experiment with Myzus persicae [3], the pest or weed control at 100 g/ha stood at 100%. Also, the Emax at 4 g/ha in the experiment on Myzus persicae [1] stood at 90%. The Emax at 0.8 ppm with Myzus persicae [4] came out at 90%.

On to `CN(C)C(=O)Nc1ccc(S(C)(=O)=O)c(-c2nc3cc(C(F)(F)F)nnc3n2C)n1` [Example I-4], for which the pest or weed control at 100 ppm in the experiment with Ctenocephalides felis [5] came to 100%. Further, in the experiment with Myzus persicae [2], the pest or weed control at 4 ppm worked out at 100%.

On to `CCS(=O)(=O)c1ccc(N(C)C(=O)N(C)C)nc1-c1nc2cc(C(F)(F)C(F)(F)F)nnc2n1C` [Example I-13], for which the pest or weed control at 4 ppm with Myzus persicae [2] was 100%. Further, in the experiment with Myzus persicae [1], the Emax at 4 g/ha worked out at 90%. Moreover, the Emax at 0.8 ppm in the experiment on Myzus persicae [6] was found to be 95%.

Turning to `CN(C)C(=O)Nc1ccc(S(C)(=O)=O)c(-c2nc3cc(C(F)(F)C(F)(F)F)nnc3n2C)n1` [Example I-11], the pest or weed control at 4 ppm in the experiment on Myzus persicae [2] worked out at 100%. Further, the Emax at 0.8 ppm in the experiment on Myzus persicae [6] was found to be 95%; in the experiment on Nilaparvata lugens [7] (336 h, 14 dat), 85%.

Take `CCS(=O)(=O)c1ccc(N(C)C(=O)NC)nc1-c1nc2cc(C(F)(F)C(F)(F)F)nnc2n1C` [Example I-8]: the pest or weed control at 4 ppm in the experiment with Myzus persicae [2] turned out to be 100%. In the experiment on Myzus persicae [6], the Emax at 0.8 ppm stood at 99%. In the experiment with Nilaparvata lugens [8], the Emax at 4 g/ha was 50%.

On to `CNC(=O)Nc1ccc(S(C)(=O)=O)c(-c2nc3cc(C(F)(F)C(F)(F)F)nnc3n2C)n1` [Example I-10], for which, in the experiment on Myzus persicae [2], the pest or weed control at 4 ppm was 100%. Besides, the Emax at 0.8 ppm in the experiment on Nilaparvata lugens [7] (168 h, 7 dat) came to 95%; in the experiment on Nilaparvata lugens [7] (336 h, 14 dat), 80%.

With `CNC(=O)Nc1ccc(S(C)(=O)=O)c(-c2nc3cc(C(F)(F)F)nnc3n2C)n1` [Example I-5], in the experiment on Ctenocephalides felis [9], the pest or weed control at 5 µg/cm2, 500 g/ha amounted to 100%. In the experiment on Ctenocephalides felis [5], the pest or weed control at 100 ppm was found to be 100%. In addition, in the experiment with Myzus persicae [2], the pest or weed control at 0.8 ppm turned out to be 100% and the pest or weed control at 4 ppm was determined as 100%. In addition, the pest or weed control at 100 g/ha with Myzus persicae [3] is 90%.

For the compound `CCNC(=O)Nc1ccc(S(=O)(=O)CC)c(-c2nc3cc(C(F)(F)F)nnc3n2C)n1` [Prior art according to WO2017/025419, reference compound], in the experiment with Phaedon cochleariae, the Emax at 100 g/ha is 50%. Besides, the Emax at 4 g/ha in the experiment on Myzus persicae [1] and in the experiment with Nilaparvata lugens [8] was 0% throughout. For the same compound, the Emax at 0.8 ppm in the experiment with Myzus persicae [4] is 0%.

As to `CCS(=O)(=O)c1ccc(NC(=O)N(C)C)nc1-c1nc2cc(C(F)(F)C(F)(F)F)nnc2n1C` [Example I-9], in the experiment on Myzus persicae [2], the pest or weed control at 4 ppm was determined as 100%. Further, in the experiment on Myzus persicae [6], the Emax at 0.8 ppm was 98%.
